Tested on: HCV replicon (Renilla luciferase) in HUH-7 cells
Experiment: HCV replicon luciferase reporter assay
Format: cell-based, HCV strain 1b
Conditions: Huh-7, 96 h, 4 days
Source text: An HCV replicon whole cell system was established as described by Lohmann V, Korner F, Koch J, Herian U, Theilmann L, Bartenschlager R., Science 285(5424):110-3 (1999). This system enabled us to evaluate the effects of our HCV Protease compounds on HCV RNA replication. Briefly, using the HCV strain 1b sequence described in the Lohmann paper (Assession number: AJ238799), an HCV cDNA was synthesized by Operon Technologies, Inc. (Alameda, Calif.), and the full-length replicon was then assembled in plasmid pGem9zf(+) (Promega, Madison, Wis.) using standard molecular biology techniques. […]
As a secondary assay, EC50 determinations from the replicon FRET assay were confirmed in a replicon luciferase reporter assay. […] Following 4 days in a 37° C./5% CO2 incubator, cells were analyzed for Renilla Luciferase activity using the Promega Dual-Glo Luciferase Assay System. […] Plates were read on a Packard TopCount NXT using a luminescence program.
The percentage inhibition was calculated using the formula below: % control=average luciferase signal in experimental wells (+compound)
average luciferase signal in DMSO control wells (−compound) The values were graphed and analyzed using XLfit to obtain the EC50 value.

COc1c(O[C@@H]2C[C@H]3C(=O)N[C@]4(C(=O)NS(=O)(=O)C5CC5)C[C@H]4/C=C\CCCCC[C@H](NC(=O)OC(C)(C)C)C(=O)N3C2)ccc2c(Cl)nccc12 [Compound 3]
EC50: 5.5 nM

From US7741281B2, “Hepatitis C virus inhibitors” (Bristol-Myers Squibb Company, priority 2005, dated 2010)
